From publication PMC11157491, “Novel Alaninamide Derivatives with Drug-like Potential for Development as Antiseizure and Antinociceptive Therapies—In Vitro and In Vivo Characterization” (ACS Chemical Neuroscience, 2024)
Like-named read-outs stand apart in the source and are kept apart here.

Columns and labels:
[1] = system: mice; assay: 6 Hz (32 mA) psychomotor seizure model; type: in vivo; details: Mus musculus, ip; for responders at 100 mg/kg: 100 mg/kg i.p., 0.5 h; for ED50: mice, pretreatment 0.5 h
Excerpt: Identification and profiling of new ASM candidate compounds are still largely based on predictive animal models of seizures/epilepsy, while a range of in silico and in vitro approaches (i.e., molecular modeling or high throughput screening, etc.) are increasingly used in the early stages of ASM discovery.[31] The Epilepsy Therapy Screening Program (ETSP) of the National Institute of Neurological Disorders and Stroke (NIH, Bethesda, MD) has enabled the discovery of several approved ASMs by focusing on the in vivo testing of compounds synthesized by both academic laboratories and industry.[32] The ETSP provides a broad panel of seizure tests (ca. 30 rodent models), but a subset of them is used for the initial screening of new compounds with potential antiseizure activity. The routinely used seizure models include: (i) the MES test, which is an experimental model of tonic–clonic seizures, (ii) the 6 Hz model (32 mA) of focal seizures, and (iii) the scPTZ model of generalized absence or myoclonic seizures.[33],[34] Consequently, in the current studies, all final compounds 21–36 and 45–48 were initially studied in the MES and the 6 Hz (32 mA) seizure models after intraperitoneal (i.p.) administration at a screening dose of 100 mg/kg in mice at a time point of 0.5 h (the screening group consisted of four mice, and the results obtained are summarized in Table S1).
These parameters were then used to calculate the protective indexes (PIs, PI = TD50/ED50), which describe the therapeutics window of potential drug candidates. The ED50, TD50, and PI values for the tested compounds together with data of their chemical prototypes KA-11 and KJ-5 and reference ASMs are summarized in Table 2.
The adult male Albino Swiss mice weighed between 22 and 26 g were used in the in vivo studies. They were housed under standardized housing conditions in colony cages and had free access to food as well as tap water. The animals were left to adapt under laboratory conditions for 7 days. All procedures involving animals and their care were performed in accordance with the current European Community and Polish legislation on animal experimentation.
In the initial screening studies, four mice per group were randomly assigned to each experimental group (each mouse was used only once). To evaluate the ED50 or TD50 values, four groups consisting of eight animals were injected with various doses of tested compounds. The protective indexes (PIs) for the compounds investigated and reference ASMs were calculated by dividing the TD50 value, as determined in the chimney test, by the respective ED50 value, as determined in the MES, scPTZ, or 6 Hz (32 or 44 mA) tests (PI = TD50/ED50). The PIs are a measure of the potential therapeutic window of the tested agent.
All substances were suspended in Tween 80 (1% aqueous solution) and administered i.p. as a single injection at a dose of 10 mL/kg. On each day of experimentation, fresh solutions were prepared. The detailed in vivo procedures are described elsewhere: the maximal electroshock seizure test (MES),[60] the subcutaneous pentylenetetrazole seizure test (scPTZ),[61] the 6 Hz psychomotor seizure model (32 and 44 mA),[62] and the chimney test.[63] The reference ASMs were purchased from commercial suppliers: VPA (Sigma-Aldrich, St. Louis, MO), LCS, and LEV (UCB Pharma, Braine l’Alleud, Belgium).

[2] = system: mice; assay: Grip strength test; type: in vivo; details: 50 mg/kg i.p., 30 min before test
Procedure: The grip strength test was performed just before the ivPTZ test to assess the acute effect of compounds 26 and 28 on neuromuscular strength.
In studies assessing the acute effect of compounds 26 and 28 on the ivPTZ seizure threshold and neuromuscular strength, the compounds were suspended in a 1% solution of Tween 80 and administered i.p., at a dose of 50 mg/kg of body weight, 30 min before the tests. The experimental procedures of the timed ivPTZ test and the grip strength test were described in detail elsewhere.[64]
Data from the ivPTZ test and the grip strength test were analyzed using Student’s t-test.
Figure S1. Acute effects of compound 26 (A) and 28 (B) on grip strength in mice. Both compounds were administered i.p. at a dose of 50 mg/kg, 30 min before the test. Control animals received vehicle. Data are presented as means ± SEM of grip strength expressed in mN/g of body weight (n = 10animals). The statistical significance was evaluated by a Student's t test (GraphPad Prism 8). […]
Behavioral tests were performed 24 h after the last PTZ injection. […] The statistical significance was evaluated by one-way ANOVA followed by the Tukey’s post hoc test: *p < 0.05, (GraphPad Prism 8). […]

[3] = target: T1, TRPV1 (VR1) (h) (Homo sapiens, UniProt Q8NER1); assay: TRPV1 antagonist effect functional assay; type: cell-based; details: 10 μM, human recombinant CHO cells; read-out: % inhibition of control agonist response
T1 construct: Eurofins (contract assay)
Procedure: For many years, the TRPV1 channel, permeable to calcium and sodium ions, has been recognized as a promising molecular target for novel analgesics.[19] […] Therefore, bearing in mind the involvement of TRPV1 in pain sensation and potentially in seizure induction, in the next step of the in vitro studies, the TRPV1 antagonist activity was determined for all compounds obtained (Table 6).
Binding/functional studies were carried out commercially in Eurofins Laboratories (Poitiers, France) and Eurofins Panlabs Discovery Services Taiwan, Ltd. (New Taipei City, Taiwan) using testing procedures that were reported previously (for details, see Table S2).
Table S2. Radioligand binding and functional assays. […]
TRPV1 (VR1) (h) (antagonist effect) […]
Assays were performed commercially in Eurofins Laboratories ( Poitiers, France) or Eurofins Panlabs Discovery Services
Taiwan, Ltd. (New Taipei City, Taiwan).

[4] = system: HSA and AGP; assay: in vitro; details: human, plasma
Procedure: The plasma protein binding: human serum albumin (HSA) and α1-acid glycoprotein (AGP) was evaluated by the commercial TRANSIL^XL PPB assay.

[5] = four mice, read-out: protection in 6 Hz (32 mA) screening
[6] = read-out: 6 Hz (32 mA): number of mice protected/number of mice tested (converted)

T1 sequence (Q8NER1 whole entry): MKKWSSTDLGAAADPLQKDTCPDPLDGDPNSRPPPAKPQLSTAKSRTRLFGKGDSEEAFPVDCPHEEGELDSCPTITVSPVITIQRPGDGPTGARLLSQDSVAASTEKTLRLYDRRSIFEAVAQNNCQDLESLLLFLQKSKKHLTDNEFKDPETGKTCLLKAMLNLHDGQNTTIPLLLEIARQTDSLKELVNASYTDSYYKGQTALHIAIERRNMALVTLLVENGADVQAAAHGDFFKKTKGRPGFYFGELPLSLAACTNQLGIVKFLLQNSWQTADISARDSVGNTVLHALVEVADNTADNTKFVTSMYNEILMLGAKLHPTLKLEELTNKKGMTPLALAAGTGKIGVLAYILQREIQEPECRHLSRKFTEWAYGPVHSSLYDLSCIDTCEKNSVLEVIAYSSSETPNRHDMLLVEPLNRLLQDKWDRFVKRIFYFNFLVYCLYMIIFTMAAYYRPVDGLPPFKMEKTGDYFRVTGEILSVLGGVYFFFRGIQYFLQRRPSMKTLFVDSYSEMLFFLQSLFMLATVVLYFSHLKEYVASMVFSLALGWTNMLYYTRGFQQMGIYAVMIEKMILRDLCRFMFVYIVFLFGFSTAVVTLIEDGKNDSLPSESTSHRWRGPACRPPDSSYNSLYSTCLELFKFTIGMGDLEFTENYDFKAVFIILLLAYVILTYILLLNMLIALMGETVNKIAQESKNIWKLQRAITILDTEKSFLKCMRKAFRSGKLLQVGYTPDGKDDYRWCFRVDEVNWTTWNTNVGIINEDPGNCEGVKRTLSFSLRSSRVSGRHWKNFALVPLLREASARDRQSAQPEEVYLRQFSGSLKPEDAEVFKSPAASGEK

Structure (SMILES) | responders at 100 mg/kg [1, 5] [%] | responders at 100 mg/kg [1, 6] [%] | ED50 [1] [mg/kg] | neuromuscular strength (grip strength) [2] | inhibition at 10 µM [3] [%] | fraction unbound [4]
CC(=O)NC(C)C(=O)N1CCN(c2cccc(C(F)(F)F)c2)CC1 (stereo not drawn) [Compound 26, N-(1-oxo-1-(4-(3-(Trifluoromethyl)phenyl)piperazin-1-yl)propan-2-yl)acetamide] | 100 | 100 | 15.6 | Neither compound 26 nor 28 (50 mg/kg) significantly affect | -4.9 | 0.214
CC(=O)NC(C)C(=O)N1CCN(c2cccc(OC(F)(F)F)c2)CC1 (stereo not drawn) [Compound 28, N-(1-oxo-1-(4-(3-(Trifluoromethoxy)phenyl)piperazin-1-yl)propan-2-yl)acetamide] | 100 | 100 | 12.1 | Neither compound 26 nor 28 (50 mg/kg) significantly affect | 6.5 | 0.17
